Eleven compounds from patent publication US20240191198A1, “CELL-CULTURED FOOD PRODUCTS AND RELATED CELLS, COMPOSITIONS, METHODS AND SYSTEMS” (BlueNalu, Inc., priority 2021, published 2024) can be followed below.

Each structure is given as a SMILES string. Entries after “also recorded” stand apart in the source; their conditions may differ.

In one data set the test system is Bluefin tuna myoblasts. Description: Effect of nervonic acid on fatty acid toxicity (IncuCyte, CellTiter-Glo ATP assay). It is filed as cell-based, Thunnus orientalis. As for the experimental part:
(§1) Concentration effects of fatty acids previously shown to be toxic to aquatic fat-derived and muscle-derived cells (Example 2, Example 5, and Example 6, respectively) were evaluated, alone and in combination with nervonic acid. EPA, DHA, stearic acid, palmitic acid and nervonic acid were tested at concentrations of 0, 10, 25, and 50 ug/mL; each concentration of EPA, DHA, stearic acid and palmitic acid was also tested in combination with 10, 25 and 50 μg/ml of nervonic acid.
(§2) Cell lines were seeded per standard passaging protocols in 4×96 well plates. The cells were allowed to proliferate to approximately 80% confluence, and then transitioned to lipid loading medium containing 0/4% FBS and appropriate lipid compositions, with 6 wells/condition. Cells were monitored for 24-48 hours to evaluate any protective effect with the addition of nervonic acid.
Cells from aquatic species were placed in the IncuCyte and scanned every 6 hours up to 48 hours. Once imaging was completed, cellviability was determined by a commercially available ATP assay (CellTiter-Glo 2.0, Promega) where luminescent signal is proportionate to cell number.

Another data set has as its system rabbit skin fibroblasts. Described as above. It is filed as cell-based, Oryctolagus cuniculus. On the procedure:
as §1, §2
(§3) Cells from terrestrial cell lines were imaged in the IncuCyte for a 1-time scan to collect the images and quantify confluence using the IncuCyte software. Following imaging, cell viability was determined by a commercially available ATP assay (CellTiter-Glo 2.0, Promega) where luminescent signal is proportionate to cell number.

Data set [1] concerns Yellowtail myoblasts. Description: Loading of single fatty acids into yellowtail myoblasts. Format: cell-based, Seriola lalandi. The settings on record: for lipid accumulation (BODIPY): individual BSA-conjugated fatty acid 25, 50, 75 or 100 μg/ml, 4% serum. As for the experimental part: Cells were seeded onto tissue culture polystyrene at a density of 6000 cells per cm^2. Cells were cultured in the presence of control media without fatty acids or test media with individual fatty acids conjugated to BSA at 25, 50, 75, or 100 μg/ml in the presence of 4% serum. Individual fatty acids tested included saturated fatty acids, monounsaturated fatty acids, and unsaturated fatty acids as shown in Table 7 with varying carbon chain length and location of double bonds along the carbon chain. Cell morphology was observed over a six-day period by brightfield microscopy for characteristic rounding and lipid loading.

The subject of another data set is dog kidney cells. Description: Effect of nervonic acid on fatty acid toxicity (IncuCyte, CellTiter-Glo ATP assay). Format: cell-based, Canis familiaris. On the procedure: as §1, §2, §3
(In general: In ATP-based viability assays light output follows the ATP content of the culture.)

Data set [2] deals with silver carp preadipocytes. Description: Loading of single fatty acids into carp preadipocytes. Format: cell-based, Hypophthalmichthys molitrix. Conditions: six days; for lipid loading (brightfield, BODIPY lipid droplets): individual fatty acid 25, 50, 75 or 100 μg/ml; for toxicity (cell confluency, cell number): individual fatty acid up to 100 μg/ml. On the procedure:
Preadipocytes derived from freshwater carp as described in Example 1 were evaluated for the ability to uptake individual fatty acids. Cells were seeded onto tissue culture polystyrene at a density of 5-7000 cells per cm^2. Cells were cultured in the presence of control media without fatty acids or test media with individual fatty acids at 25, 50, 75, or 100 μg/ml in the absence of serum. Individual fatty acids tested included saturated fatty acids ([…]) and unsaturated fatty acids (linoleic acid). Cell morphology was observed over a six-day period by brightfield microscopy for characteristic rounding and lipid loading. As in Example 1, immunofluorescent staining of cells was performed for cell nuclei by DAPI, cell cytoskeleton by Phalloidin, and lipid droplets by BODIPY.

In data set [3] the test system is Myoblasts or fibroblasts of chicken, duck, goose, or turkey. Description: Loading of fatty acid mixtures and single fatty acids into cells from avian species. Format: cell-based. On the procedure:
Myoblasts or fibroblasts of chicken, duck, goose, or turkey are isolated from muscle tissue by enzymatic and mechanical/or manual dissociation. Cells are expanded in 2D tissue culture or cell suspension culture.
(§4) Cells are cultured in the presence of control media without fatty acids or test media with individual fatty acids at 1, 5, 10, 15, 25, 50, 75, or 100 μg/ml in the absence or presence of reduced serum. Fatty acids are conjugated to BSA or unconjugated. Individual fatty acids include saturated fatty acids, monounsaturated fatty acids, and poly-unsaturated fatty acids with varying carbon chain lengths and location of double bonds along the carbon chains.

Data set [4] deals with Myoblasts or fibroblasts of cow, pork, goat, lamb, or deer. The data set is described as follows: Loading of fatty acid mixtures and single fatty acids into mammalian cells. Format: cell-based. On the procedure: Myoblasts or fibroblasts of cow, pork, goat, lamb, or deer are isolated from muscle tissue by enzymatic and mechanical/or manual dissociation. Cells are expanded in 2D tissue culture or 3D cell suspension culture.
as §4

Data set [5] has as its system Yellowtail myoblasts. The data set is described as follows: Loading of chemically defined fatty acid combinations (Taguchi L-27) into yellowtail myoblasts: cell number, BODIPY, Mitotracker. It is filed as cell-based, Seriola lalandi. Conditions: fatty acids each at 0, 10, 25 or 50 μg/ml, 4% serum. As for the experimental part: Myoblasts derived from yellowtail as described in Example 4 were evaluated for the ability to uptake fatty acids from a defined chemical composition. Cells were seeded onto tissue culture polystyrene at a density of 6000 cells per cm^2. Cells were cultured in the presence of control media without fatty acids or test media with fatty acids conjugated to BSA in the presence of 4% serum for two or six days. Concentrations were used for each individual fatty acid at 0, 10, 25, or 50 μg/ml. Combinations of fatty acids were determined using a design of experiments using a Taguchi L-27 design (Table 8). […] Cells were fixed, stained and imaged at day two or day six. Cells were treated with NucBlue, BODIPY and Mitotracker for 1.5 hours and live imaging was performed. Cells were then fixed in 4% PFA for 15 minutes and then blocked overnight at 4 degrees Celsius in blocking buffer that contained 5% goat serum, 1% BSA, and 0.2% fish gelatin in PBS. Cells were incubated with Phalloidin for 1 hour at room temperature in blocking buffer (Phalloidin 1:800). Plates were washed twice with PBS prior to imaging. JMP statistical software was used to quantify the effect of each fatty acid on cell number, fatty acid accumulation, and cell health.

Setting [6] is: toxic concentration of 50 μg/mL DHA.
Where [7] appears, read: 1-100 μg/ml, absence or presence of reduced serum.
The mark [8] stands for this setting: added to the growth medium as the only fatty acid.

For `CC/C=C\C/C=C\C/C=C\C/C=C\C/C=C\C/C=C\CCC(=O)O` [DHA, docosahexaenoic acid], the toxic concentration with Bluefin tuna myoblasts (24-48 hours), in the data set on rabbit skin fibroblasts (24-48 hours) and with dog kidney cells (24-48 hours) was 50 µg/mL each time. Further, the “concentration above which toxicity occurs” value in the data set with Yellowtail myoblasts [1] (altered cell morphology and decreased cell number) is “above 25 μg/ml”. For the same compound, the “toxicity (cell morphology, cell number)” value with Yellowtail myoblasts [1] (individual fatty acid, six days) is on record as “some toxicity effects at highest concentrations tested”.
As to `CCCCCCCCCCCC(=O)O` [lauric acid], the “lipid accumulation (BODIPY)” value in the data set with Yellowtail myoblasts [1] (six days) is on record as “significant accumulation at all concentrations tested; also recorded: Highest lipid loading”.
For the compound `CCCCC/C=C\C/C=C\CCCCCCCC(=O)O` [linoleic acid], the “lipid loading (brightfield, BODIPY lipid droplets)” value (shortened to “lipid loading”) in data set [2] was “concentration-dependent lipid accumulation; also recorded: increased loading with concentration”. Also, the “lipid accumulation (BODIPY)” value in the data set with Yellowtail myoblasts [1] (six days) is listed as “limited total loading capacity”.
Turning to `CC/C=C\C/C=C\C/C=C\CCCCCCCC(=O)O` [linolenic acid, α-linolenic acid], the “lipid accumulation (BODIPY)” value with Yellowtail myoblasts [1] (six days) is “lipid accumulation that was concentration-driven; also recorded: Loading at all concentrations was observed”.
`CCCCCCCCCCCCCC(=O)O` [myristic acid]: in the data set on Yellowtail myoblasts [1] (six days), the “lipid accumulation (BODIPY)” value is reported as “limited accumulation with only small areas of uptake even at the highest concentration of 100 μg/ml”.
Take `CCCCCCCC/C=C\CCCCCCCCCCCCCC(=O)O` [nervonic acid, (Z)-Tetracos-15-enoic acid]: the “increase in cell number (cell ATP) in the presence of nervonic acid” value with Bluefin tuna myoblasts (setting [6]) was determined as 70 ×; in the data set with rabbit skin fibroblasts (setting [6]) it was 42 ×; in the data set on dog kidney cells (setting [6]) it was 5.5 ×. The “lipid uptake and lipid accumulation” value was “causes increased lipid uptake and lipid accumulation” in data set [3] (setting [7]); “causes increased lipid uptake and lipid accumulation” in data set [4] (setting [7]). Also, the cell proliferation result in data set [3] (setting [8]) and in data set [4] (setting [8]) was “increases cell proliferation” in each case. In addition, the “lipid accumulation (BODIPY)” value in the data set with Yellowtail myoblasts [1] (six days) was “no lipid accumulation at any concentration tested; also recorded: does not load when used individually; also recorded: No lipid loading was observed”. Also, the “cell number and health (Mitotracker), viability” value in the data set with Yellowtail myoblasts [5] is “key factor in increasing lipid accumulation and cell number”. The “lipid content / lipid accumulation (BODIPY fluorescence)” value in the data set with Yellowtail myoblasts [5] (two or six days) is “key factor in increasing lipid accumulation and cell number”.
As for `CCCCCCCC/C=C\CCCCCCCC(=O)O` [oleic acid], in the data set on Yellowtail myoblasts [1] (six days), the “lipid accumulation (BODIPY)” value is “Loading at all concentrations was observed”.
The same measure, in the same setting: to `CCCCCCCCCCCCCCCC(=O)O` [palmitic acid] belongs “limited accumulation with only small areas of uptake even at the highest concentration of 100 μg/ml”.
Regarding `CCCCCC/C=C\CCCCCCCC(=O)O` [palmitoleic acid], in data set [2], the “lipid loading” value is on record as “concentration-dependent lipid accumulation; also recorded: a peak for palmitoleic acid is reached at a lower concentration”; the “toxicity (cell confluency, cell number)” value is reported as “reduced cell confluency indicating potential toxicity”; the “concentration above which toxicity occurs” value is “above 50 μg/ml”. In addition, in data set [2] (listed as Palmitoleic acid), the “lipid loading” value was “effective loading at 50 μg/ml” and the “toxicity (cell confluency, cell number)” value was “reduced cell number; also recorded: Some concentration-related toxicity”. For the same compound, the “lipid accumulation (BODIPY)” value in the data set with Yellowtail myoblasts [1] (six days) is “Loading at all concentrations was observed”.
As for `CCCCCCCCCCCCCCCCCC(=O)O` [stearic acid], the “lipid accumulation (BODIPY)” value in the data set with Yellowtail myoblasts [1] (six days) is reported as “limited accumulation with only small areas of uptake even at the highest concentration of 100 μg/ml”.
Take `CCCCCC/C=C\CCCCCCCCCC(=O)O` [vaccenic acid, (11Z)-11-octadecenoic acid]: the “lipid accumulation (BODIPY)” value in the data set with Yellowtail myoblasts [1] (six days) was “Loading at all concentrations was observed”; in the data set with Yellowtail myoblasts [1] (six days, listed as Cis-vaccenic acid) it was “taken up very readily”.
